Like-named read-outs stand apart in the source and are kept apart here.
Key:
Puccinia triticina = experiment: Wheat Brown Rust (PUCCRT) fungicidal activity; type: in vivo; details: Low Volume (121.5 g/H)
Method: Technical grades of materials were dissolved in acetone, which were then mixed with nine volumes of H2O containing 110 ppm Triton X-100. The fungicide solutions were applied onto wheat seedlings using an automated booth sprayer to run-off. All sprayed plants were allowed to air dry prior to further handling. All fungicides were evaluated using the aforementioned method for their activity vs. all target diseases, unless stated otherwise. Wheat leaf blotch and brown rust activity were also evaluated using track spray applications, in which case the fungicides were formulated as EC formulations, containing 0.1% Trycol 5941 in the spray solutions. Wheat plants (variety Yuma) were grown from seed in a greenhouse in 50% mineral soil/50% soil-less Metro mix until the first leaf was fully emerged, with 7-10 seedlings per pot. These plants were inoculated with an aqueous spore suspension of Puccinia triticina either prior to or after fungicide treatments. After inoculation the plants were kept in a dark dew room at 22° C. with 100% relative humidity overnight to permit spores to germinate and infect the leaf. The plants were then transferred to a greenhouse set at 24° C. for disease to develop. Fungicide formulation, application and disease assessment followed the procedures as described in the Example A.

Zymoseptoria tritici = experiment: Leaf Blotch of Wheat (SEPTTR) fungicidal activity; type: in vivo; details: Low Volume (121.5 g/H)
Method: Technical grades of materials were dissolved in acetone, which were then mixed with nine volumes of H2O containing 110 ppm Triton X-100. The fungicide solutions were applied onto wheat seedlings using an automated booth sprayer to run-off. All sprayed plants were allowed to air dry prior to further handling. All fungicides were evaluated using the aforementioned method for their activity vs. all target diseases, unless stated otherwise. Wheat leaf blotch and brown rust activity were also evaluated using track spray applications, in which case the fungicides were formulated as EC formulations, containing 0.1% Trycol 5941 in the spray solutions. Wheat plants (variety Yuma) were grown from seed in a greenhouse in 50% mineral soil/50% soil-less Metro mix until the first leaf was fully emerged, with 7-10 seedlings per pot. These plants were inoculated with an aqueous spore suspension of Zymoseptoria tritici either prior to or after fungicide treatments. After inoculation the plants were kept in 100% relative humidity (one day in a dark dew chamber followed by two to three days in a lighted dew chamber at 20° C.) to permit spores to germinate and infect the leaf. The plants were then transferred to a greenhouse set at 20° C. for disease to develop. When disease symptoms were fully expressed on the 1st leaves of untreated plants, infection levels were assessed on a scale of 0 to 100 percent disease severity. Percent disease control was calculated using the ratio of disease severity on treated plants relative to untreated plants.

[1] = 24 h, 1 Day Protectant, read-out: PUCCRT 1DP disease control
[2] = 72 h, 3 Day Curative, read-out: PUCCRT 3DC disease control
[3] = 24 h, 1 Day Protectant, read-out: SEPTTR 1DP disease control
[4] = 72 h, 3 Day Curative, read-out: SEPTTR 3DC disease control

SMILES	pest or weed control at 121.5 g/ha (Puccinia triticina; [1]) [%]	pest or weed control at 121.5 g/ha (Puccinia triticina; [2]) [%]	pest or weed control at 121.5 g/ha (Zymoseptoria tritici; [3]) [%]	pest or weed control at 121.5 g/ha (Zymoseptoria tritici; [4]) [%]
CCC[C@H]1CCCC[C@H](NC(=O)c2nccc(OC)c2OCOC(C)=O)C(=O)O[C@@H](C)[C@@H]1OCC(C)C [Cmpd 30, ((2-(((3S,8S,9R,10S)-9-isobutoxy-10-methyl-2-oxo-8-propyloxecan-3-yl)carbamoyl)-4-methoxypyridin-3-yl)oxy)methyl acetate]	> 80	< 80	< 80	< 80
COc1ccnc(C(=O)N[C@H]2COCC[C@H](OCc3ccccc3)[C@@H](OCc3ccccc3)[C@H](C)OC2=O)c1OCOC(C)=O [Compound 1]	> 80	–	> 80	< 80
CCCCO[C@H]1CCOC[C@H](NC(=O)c2nccc(OC)c2OCOC(C)=O)C(=O)O[C@@H](C)[C@@H]1OCc1ccccc1 [Compound 2]	> 80	> 80	< 80	–
CCCCO[C@H]1CCOC[C@H](NC(=O)c2nccc(OC)c2OCOC(C)=O)C(=O)O[C@@H](C)[C@@H]1OC(=O)c1ccccc1 [Compound 4]	> 80	> 80	< 80	–
COc1ccnc(C(=O)N[C@H]2CCCC[C@H](OCc3ccccc3)[C@@H](OCc3ccccc3)[C@H](C)OC2=O)c1OCOC(C)=O [Compound 8]	> 80	> 80	> 80	> 80
COc1ccnc(C(=O)N[C@H]2CCCC[C@H](OCc3ccccc3)[C@@H](OCc3ccccc3)[C@H](C)OC2=O)c1OC(C)=O [Compound 9]	> 80	< 80	> 80	> 80
COc1ccnc(C(=O)N[C@H]2CCCC[C@H](OC)[C@@H](Oc3ccccc3)[C@H](C)OC2=O)c1OCOC(C)=O [Compound 11]	> 80	> 80	> 80	> 80
COc1ccnc(C(=O)N[C@H]2CCCC[C@H](OCC(C)C)[C@@H](Oc3ccccc3)[C@H](C)OC2=O)c1OCOC(C)=O [Compound 13]	> 80	> 80	> 80	> 80
COc1ccnc(C(=O)N[C@H]2CCCC[C@H](OCC(C)C)[C@@H](OCC(C)C)[C@H](C)OC2=O)c1OCOC(C)=O [Compound 14]	> 80	< 80	> 80	< 80
CCCCCO[C@H]1[C@H](C)OC(=O)[C@@H](NC(=O)c2nccc(OC)c2OCOC(C)=O)CCCC[C@@H]1OC(=O)c1ccccc1 [Compound 15]	> 80	< 80	> 80	> 80
COc1ccnc(C(=O)N[C@H]2CCOC[C@H](Cc3ccccc3)[C@@H](OCC(C)C)[C@H](C)OC2=O)c1OCOC(C)=O [Compound 16]	> 80	< 80	< 80	< 80
COc1ccnc(C(=O)N[C@H]2CCCC[C@H](Oc3ccccc3)[C@@H](Oc3ccccc3)[C@H](C)OC2=O)c1OCOC(C)=O [Compound 19]	> 80	> 80	> 80	> 80
COc1ccnc(C(=O)N[C@H]2COCC[C@H](Cc3ccccc3)[C@@H](OCC(C)C)[C@H](C)OC2=O)c1OCOC(C)=O [Compound 20]	> 80	> 80	< 80	> 80
COc1ccnc(C(=O)N[C@H]2COCC[C@H](Cc3ccccc3)[C@@H](OCC(C)C)[C@H](C)OC2=O)c1OC(C)=O [Compound 21]	> 80	> 80	< 80	> 80
COc1ccnc(C(=O)N[C@H]2CCCC[C@H](OC)[C@@H](OC)[C@H](C)OC2=O)c1OCOC(C)=O [Compound 22]	> 80	> 80	–	< 80
CCCO[C@H]1CCCC[C@H](NC(=O)c2nccc(OC)c2OCOC(C)=O)C(=O)O[C@@H](C)[C@@H]1Oc1ccccc1 [Compound 23]	> 80	> 80	> 80	> 80
COc1ccnc(C(=O)N[C@H]2CCCC[C@H](Cc3ccccc3)[C@@H](OCC(C)C)[C@H](C)OC2=O)c1OCOC(C)=O [Compound 24]	> 80	< 80	> 80	> 80
COc1ccnc(C(=O)N[C@H]2CCCC[C@H](Oc3ccccc3)[C@@H](Oc3ccccc3)[C@H](C)OC2=O)c1OC(C)=O [Compound 25]	> 80	< 80	> 80	< 80
CCCO[C@H]1CCCC[C@H](NC(=O)c2nccc(OC)c2OC(C)=O)C(=O)O[C@@H](C)[C@@H]1Oc1ccccc1 [Compound 26]	> 80	> 80	> 80	> 80
COc1ccnc(C(=O)N[C@H]2CCCC[C@H](OC)[C@@H](OC)[C@H](C)OC2=O)c1OC(C)=O [Compound 27]	> 80	> 80	< 80	–
COc1ccnc(C(=O)N[C@H]2CCCC[C@H](OC)[C@@H](OCC(C)C)[C@H](C)OC2=O)c1OC(C)=O [Compound 28]	> 80	> 80	< 80	> 80
COc1ccnc(C(=O)N[C@H]2CCCC[C@@H]3OC(C)(C)O[C@H]3[C@H](C)OC2=O)c1OC(C)=O [Compound 29]	> 80	> 80	< 80	> 80
CCC[C@H]1CCCC[C@H](NC(=O)c2nccc(OC)c2OCOC(C)=O)C(=O)O[C@@H](C)[C@@H]1OC(=O)C(C)C [Compound 31]	> 80	< 80	< 80	< 80
COc1ccc(CO[C@H]2[C@H](C)OC(=O)[C@@H](NC(=O)c3nccc(OC)c3OCOC(C)=O)CCOC[C@@H]2OCc2ccc(OC)cc2)cc1 [Compound 32]	–	< 80	–	< 80
COc1ccnc(C(=O)N[C@H]2CCCC[C@@H]3OC(C)(C)O[C@H]3[C@H](C)OC2=O)c1OCOC(C)=O [Compound 33]	> 80	> 80	< 80	> 80
COc1ccnc(C(=O)N[C@H]2CCCC[C@H](OC)[C@@H](OC3CCCC3)[C@H](C)OC2=O)c1OCOC(C)=O [Compound 34]	> 80	> 80	< 80	> 80
COc1ccnc(C(=O)N[C@H]2CCCC[C@H](OC3CCCC3)[C@@H](OC)[C@H](C)OC2=O)c1OCOC(C)=O [Compound 35]	> 80	< 80	–	–
COc1ccnc(C(=O)N[C@H]2CCCC[C@H](Oc3ccccc3)[C@@H](OC3CCCC3)[C@H](C)OC2=O)c1OCOC(C)=O [Compound 36]	> 80	> 80	< 80	< 80
COc1ccnc(C(=O)N[C@H]2CCOC[C@H](OCC(C)C)[C@@H](OCC(C)C)[C@H](C)OC2=O)c1OCOC(C)=O [Compound 43]	> 80	< 80	–	–
